{"source": "the CheMixHub viscosity set", "assay": "xn = mol fraction of the nth substance listed", "note": "± gives the uncertainty stated by the source.", "data": [{"smiles": "CCCCCCCCCCCCCC", "note": "+ COc1ccccc1", "values": [{"measurement": "viscosity", "setting": "298.15 K, 101 kPa, x1 = 0.1012", "value": "0.996 ± 0.095", "unit": "mPa·s"}, {"measurement": "viscosity", "setting": "298.15 K, 101 kPa, x1 = 0.2027", "value": "1.035 ± 0.099", "unit": "mPa·s"}, {"measurement": "viscosity", "setting": "298.15 K, 101 kPa, x1 = 0.3005", "value": "1.105 ± 0.1", "unit": "mPa·s"}, {"measurement": "viscosity", "setting": "298.15 K, 101 kPa, x1 = 0.3936", "value": "1.241 ± 0.12", "unit": "mPa·s"}, {"measurement": "viscosity", "setting": "298.15 K, 101 kPa, x1 = 0.4986", "value": "1.311 ± 0.12", "unit": "mPa·s"}, {"measurement": "viscosity", "setting": "298.15 K, 101 kPa, x1 = 0.6001", "value": "1.38 ± 0.13", "unit": "mPa·s"}, {"measurement": "viscosity", "setting": "298.15 K, 101 kPa, x1 = 0.6977", "value": "1.45 ± 0.13", "unit": "mPa·s"}, {"measurement": "viscosity", "setting": "298.15 K, 101 kPa, x1 = 0.7959", "value": "1.521 ± 0.14", "unit": "mPa·s"}, {"measurement": "viscosity", "setting": "298.15 K, 101 kPa, x1 = 0.8991", "value": "1.697 ± 0.15", "unit": "mPa·s"}, {"measurement": "viscosity", "setting": "303.15 K, 101 kPa, x1 = 0.1012", "value": "0.916 ± 0.089", "unit": "mPa·s"}, {"measurement": "viscosity", "setting": "303.15 K, 101 kPa, x1 = 0.2027", "value": "0.974 ± 0.093", "unit": "mPa·s"}, {"measurement": "viscosity", "setting": "303.15 K, 101 kPa, x1 = 0.3005", "value": "1.004 ± 0.096", "unit": "mPa·s"}, {"measurement": "viscosity", "setting": "303.15 K, 101 kPa, x1 = 0.3936", "value": "1.116 ± 0.11", "unit": "mPa·s"}, {"measurement": "viscosity", "setting": "303.15 K, 101 kPa, x1 = 0.4986", "value": "1.21 ± 0.11", "unit": "mPa·s"}, {"measurement": "viscosity", "setting": "303.15 K, 101 kPa, x1 = 0.6001", "value": "1.304 ± 0.12", "unit": "mPa·s"}, {"measurement": "viscosity", "setting": "303.15 K, 101 kPa, x1 = 0.6977", "value": "1.398 ± 0.13", "unit": "mPa·s"}, {"measurement": "viscosity", "setting": "303.15 K, 101 kPa, x1 = 0.7959", "value": "1.493 ± 0.14", "unit": "mPa·s"}, {"measurement": "viscosity", "setting": "303.15 K, 101 kPa, x1 = 0.8991", "value": "1.587 ± 0.14", "unit": "mPa·s"}, {"measurement": "viscosity", "setting": "308.15 K, 101 kPa, x1 = 0.1012", "value": "0.855 ± 0.084", "unit": "mPa·s"}, {"measurement": "viscosity", "setting": "308.15 K, 101 kPa, x1 = 0.2027", "value": "0.907 ± 0.088", "unit": "mPa·s"}, {"measurement": "viscosity", "setting": "308.15 K, 101 kPa, x1 = 0.3005", "value": "0.932 ± 0.09", "unit": "mPa·s"}, {"measurement": "viscosity", "setting": "308.15 K, 101 kPa, x1 = 0.3936", "value": "1.028 ± 0.098", "unit": "mPa·s"}, {"measurement": "viscosity", "setting": "308.15 K, 101 kPa, x1 = 0.4986", "value": "1.089 ± 0.1", "unit": "mPa·s"}, {"measurement": "viscosity", "setting": "308.15 K, 101 kPa, x1 = 0.6001", "value": "1.149 ± 0.11", "unit": "mPa·s"}, {"measurement": "viscosity", "setting": "308.15 K, 101 kPa, x1 = 0.6977", "value": "1.209 ± 0.11", "unit": "mPa·s"}, {"measurement": "viscosity", "setting": "308.15 K, 101 kPa, x1 = 0.7959", "value": "1.27 ± 0.12", "unit": "mPa·s"}, {"measurement": "viscosity", "setting": "308.15 K, 101 kPa, x1 = 0.8991", "value": "1.331 ± 0.12", "unit": "mPa·s"}]}, {"smiles": "ClC(Cl)=C(Cl)Cl", "note": "+ CC(C)(C)O", "values": [{"measurement": "viscosity", "setting": "303.15 K, 101.33 kPa, x1 = 0.1027", "value": "2.16 ± 0.014", "unit": "mPa·s"}, {"measurement": "viscosity", "setting": "303.15 K, 101.33 kPa, x1 = 0.2143", "value": "1.557 ± 0.01", "unit": "mPa·s"}, {"measurement": "viscosity", "setting": "303.15 K, 101.33 kPa, x1 = 0.3299", "value": "1.249 ± 0.008", "unit": "mPa·s"}, {"measurement": "viscosity", "setting": "303.15 K, 101.33 kPa, x1 = 0.4102", "value": "1.122 ± 0.008", "unit": "mPa·s"}, {"measurement": "viscosity", "setting": "303.15 K, 101.33 kPa, x1 = 0.5188", "value": "1.006 ± 0.007", "unit": "mPa·s"}, {"measurement": "viscosity", "setting": "303.15 K, 101.33 kPa, x1 = 0.6036", "value": "0.946 ± 0.006", "unit": "mPa·s"}, {"measurement": "viscosity", "setting": "303.15 K, 101.33 kPa, x1 = 0.7072", "value": "0.895 ± 0.006", "unit": "mPa·s"}, {"measurement": "viscosity", "setting": "303.15 K, 101.33 kPa, x1 = 0.8124", "value": "0.852 ± 0.006", "unit": "mPa·s"}, {"measurement": "viscosity", "setting": "303.15 K, 101.33 kPa, x1 = 0.9075", "value": "0.821 ± 0.006", "unit": "mPa·s"}]}]}
